{"source": "paper PMC7914648", "about": "(Pharmaceuticals, 2021)", "key": {"[1]": {"system": "orthotopic glioma", "details": "orthotopic murine model; cited from earlier work", "excerpt": "(§1) In turn, this difficulty may be due at least in part precisely to the TPP group, since the parent compound, PAP-1, is effective against various Central Nervous System (CNS) disorders. This difficulty is not surprising if one compares the characteristics of ..."}, "[2]": {"system": "cultured glioma and glioblastoma cell lines", "details": "cited from earlier work", "excerpt": "as §1"}, "[3]": {"assay_type": "in vivo, mouse", "method": "The brains of these mice were analyzed to evaluate the presence of the construct in the tissue (see Section 4.7). Each brain was homogenized and incubated with an equal volume of phosphate-buffered saline (PBS, pH 12.5) for 24 h; 10 volumes of ethyl acetate were then added. After vigorous mixing, the organic phase was collected, concentrated and analyzed via HPLC. This procedure allows hydrolysis of the carbamate bond, leading to the extraction of PAPTPL, which is considered proportional to the amount of peptide-PAPTP conjugate (or its fragments) present in the brain.\nThe protocol set up for PAPTPL recovery turned out to be inefficient for the quantification of TAT-PAPTP. An alternative protocol was thus developed. Tissue obtained from untreated mice was weighed and homogenized with PBS pH 7.4 (1 vol) with a potter. The pre-established amount of analyte was added into tissue homogenates and, after thorough vortexing, 1 vol of PBS pH 12.5 was added and the sample was incubated with intermittent vortexing at 60 °C for 24 h. This step is required to allow the hydrolysis of the carbamate bond connecting the peptide and PAPTPL. 10 vol of ethyl acetate were added and, after vortexing and sonication for 2 min, the sample was centrifuged at 12,000× g, 7 min, Room Temperature. The organic phase was collected and concentrated with Hetovac VR-1. ACN was added to the concentrated sample to allow the resuspension of PAPTPL and analyzed via HPLC. Quantification was as described for PAPTPL.\nBrain and liver obtained from untreated mice were weighed and homogenized with PBS pH 7.4 (1 vol) with a potter. The pre-established amount of analyte was added into tissue homogenates and, after thorough vortexing, 5 vol of acetone were added and the sample was sonicated for 2 min. Subsequently, 5 vol of ACN containing 0.1% trifluoracetic acid (TFA) were added and the sample was sonicated for 5 min. The sample was then centrifuged at 12,000× g for 7 min at 4 °C and the supernatant was collected, concentrated with a Hetovac VR-1, and analyzed via HPLC-UV.\nTo quantify the amount of An2-PAPTP stuck in the tissue, the pellet remaining after the procedure described above was incubated with intermittent Vortexing at 60 °C for 3 h with PBS pH 12.5/ACN 1:1 and then centrifuged at 12,000× g for 7 min. HPLC-UV analysis of the supernatant, measuring PAPTPL hydrolyzed from the tissue, thus indirectly reflects the amount of An2-PAPTPL in the pellet (Scheme 3). Quantification was as described for PAPTPL.\n(§2) A stock solution of the peptide-PAPTP conjugates was prepared in DMSO. TAT-PAPTP was administered at 8 and 5 μmol/kg bw and An2-PAPTP only at 5 μmol/kg bw. The calculated quantity of drugs was diluted from the stock solution in saline or mouse plasma to a final volume of 200 μL."}, "[4]": {"system": "SHSY-5Y cells", "test": "MTS cell viability assay", "assay_type": "cell-based", "details": "24 h treatment, 20, 10 and 3 μM, absorbance 490 nm, n = 3", "method": "SHSY-5Y cells (kindly provided by I. Szabò) were grown in Dulbecco’s Modified Eagle Medium (DMEM, Aurogene) supplemented with 10% (v/v) fetal bovine serum (FBS), 100 U/mL penicillin G, 0.1 mg/mL streptomycin and 5% glutamine.\nSHSY-5Y cells were seeded (10,000 cells/well) in standard 96-well plates in DMEM (200 µL). After 24 h, the growth medium was replaced with a medium containing PAPTP and PAPTPL (from a stock solution in DMSO) at the desired final concentrations (20, 10 and 3 μM). DMEM without additions (CONTROL in Figure 2) was used as negative control. The final concentration of DMSO was 0.1% or lower in all cases (including control). After incubation for 24 h, 20 µL of CellTiter 96 AQUEOUS One solution (Promega, Italy) were added to each well and the plate was incubated at 37 °C in a humidified, 5% CO2 atmosphere for 4 h. Absorbance was measured at 490 nm to detect formazan formation."}, "[5]": {"system": "C57BL mice", "test": "Observed toxicity after tail vein injection", "assay_type": "in vivo", "details": "5 µmoles/kg bw by tail vein injection in mouse plasma, no proper toxicological study", "method": "TAT-PAPTP (5 µmoles/kg bw) was administered by tail vein injection to 2 C57BL mice. […] The observed toxicity was not due to the use of plasma, since mice were not made ill by the administration of PAPTP or An2-PAPTP in the same vehicle (see below, Section 2.7).\nas §2"}, "[6]": {"test": "Visible precipitation in mouse plasma vehicle", "assay_type": "physicochemical", "details": "mouse plasma used as administration vehicle", "excerpt": "We are not aware of other pharmacological studies utilizing plasma as a vehicle, but a precedent of sorts is provided by some rejuvenation or induced aging studies that examined the systemic effects of heterologous plasma administration."}, "[7]": {"test": "Aqueous solubility determination", "assay_type": "physicochemical", "details": "kinetic, 25 mM DMSO stock diluted to 100 μM (DMSO < 0.4%), supernatant HPLC/UV", "method": "For TAT-PAPTP and An2-PAPTP, three distinct suspensions were prepared by diluting 25 mM stock solutions in DMSO to 100 μM, in 0.9% NaCl saline or water (DMSO < 0.4%). The suspensions were sonicated 5 min and immediately analyzed. The suspensions were then centrifuged at 12,000× g, 18 °C, for 1 and 2 h, and the supernatants were analyzed by HPLC/UV at the end of each centrifugation. An additional analysis was performed after 24 h of standing. The chromatographic peak areas were used to determine the concentration of the compound in the supernatants, based on calibration curves built using solutions in DMSO."}, "[8]": {"test": "Stability in blood (hydrolysis, PAPTPL release)", "assay_type": "in vitro ADME", "details": "fresh heparinized C57BL mouse blood, 37 °C, 5 µM from 5 mM DMSO stock, HPLC-UV, % PAPTPL released relative to amount spiked, mean, n = 5 (An2-PAPTP) and 4 (TAT-PAPTP)", "method": "C57BL mice were anesthetized and blood was withdrawn from the jugular vein and heparinized. Blood samples (1 mL) were spiked with compound (5 µM; dilution from a 5 mM stock solution in DMSO) and incubated at 37 °C for 4 h (the maximum period allowed by blood stability). Aliquots were taken after 10 min, 30 min, 1 h, 2 h, and 4 h before HPLC-UV analysis.\nEach aliquot was treated as described above (Section 4.7.1). Compound stability in blood was expressed as % of PAPTPL released relative to the amount of An2-PAPTP and TAT-PAPTP spiked in the sample at time 0."}, "[9]": {"system": "mouse Red Blood Cells", "test": "Haemolysis assay", "assay_type": "cell-based", "details": "5 × 10^7 mouse erythrocytes in 1 mL PBS pH 7.4, 2, 1 or 0.5 µM, 15 min, absorbance 540 nm, n = 3", "method": "Haemolysis studies were conducted as described in [72]. Briefly, freshly withdrawn blood samples were centrifuged at 1000× g for 10 min to obtain erythrocytes; the pellet was then washed thrice with sterile PBS (pH 7.4). Erythrocytes (5 × 10^7 cells in 1 mL of PBS for each experimental condition) were incubated with 2, 1 or 0.5 µM An2-PAPTP or TAT-PAPTP for 15 min. The samples were then centrifuged and absorbance (Abs) of the supernatant was measured at 540 nm. Triton X-100 1% and PBS were used as positive and negative control, respectively.\nThe percentage of haemolysis was calculated with the following equation:% haemolysis = [(Abssample − AbsPBS)/AbsTriton X-100 − AbsPBS)] × 100"}, "[10]": {"test": "spleen after tail vein injection", "details": "C57BL/6 mice, up to 60 min"}, "[11]": {"test": "fresh mouse blood, withdrawn from the jugular vein and heparinized", "details": "C57BL mice, 37 °C, up to 4 h"}, "[12]": {"test": "liver extract after tail vein injection", "details": "C57BL/6 mice, up to 60 min"}, "[13]": {"test": "heart after tail vein injection", "details": "C57BL/6 mice, up to 60 min"}, "[14]": {"test": "kidneys after tail vein injection", "details": "C57BL/6 mice, up to 60 min"}, "[15]": {"test": "Planar bilayer experiments (membrane permeabilization)", "details": "2 µM added to cis side, DPhPC bilayer, −40 mV, n = 3", "method": "The possible effects of An2-PAPTP and TAT-PAPTP on phospholipid membranes were investigated using the lipid bilayer technique. Bilayers with a capacity of 100–150 pF were prepared “painting” a diphytanoylphosphatidylcholine (DPhPC, Avanti Polar Lipids) solution in octane across a 150-µm hole in a Delrin cuvette (Warner Instruments, a division of Harvard Bioscience, Inc., Holliston, MA, USA). The two compartments separated by the bilayer are identified as cis and trans, and all voltages refer to the cis side, zero being assigned to the trans (grounded) one. One mL of recording solution (150 mM KCl, 10 mM HEPES/KOH, pH 7.4) was placed in both compartments. The contents of both chambers were stirred by magnetic bars when necessary. […] An2-PAPTP or TAT-PAPTP (DMSO stock solution) in a final concentration of 0.5 µM were added to the cis side. The final concentration of DMSO was 0.6%. 2 µM gramicidin from Bacillus brevis (Sigma) was added to the cis side as control.\nElectrical connections were made using Ag/AgCl electrodes and agar salt bridges to minimize eliminate liquid junction potentials. Data were acquired at 10 kHz using a Bilayer Clamp BC-525C amplifier (Warner Instruments, a division of Harvard Bioscience, Inc., Holliston, MA, USA.) and low-pass filtered at 300 Hz for presentation. […]"}}, "note": "Entries after “also recorded” stand apart in the source; their conditions may differ."}
{"compound": "O=c1ccc2c(OCCCCOc3ccc(CCC[P+](c4ccccc4)(c4ccccc4)c4ccccc4)cc3)c3ccoc3cc2o1.[I-]", "note": "[PAPTP, (3-(4-(4-((7-oxo-7H-furo[3,2-g]benzopyran-4-yl)oxy)butoxy)phenyl)propyl) triphenyl phosphonium iodide]", "values": [{"measurement": "effect on tumor growth", "setting": "[1]", "value": "did not affect tumor growth"}, {"measurement": "killing of cultured glioma and glioblastoma cell lines", "setting": "[2]", "value": "efficiently killed"}, {"measurement": "level in brain after i.v. PAPTP", "setting": "[3]; PAPTP 5 µmoles/kg bw i.v. in mouse plasma, same procedure", "value": "did not reach detectable levels"}, {"measurement": "cytotoxic effect (cell viability, MTS reduction assay)", "setting": "[4]", "value": "marked cytotoxicity"}, {"measurement": "observed toxicity in mice", "setting": "[5]", "value": "not made ill; also recorded: No sign of toxicity was observed"}, {"measurement": "visible precipitates in plasma", "setting": "[6]", "value": "did not form visible precipitates"}]}
{"compound": "O=C(NCCC[P+](c1ccccc1)(c1ccccc1)c1ccccc1)Oc1ccc(OCCCCOc2c3ccoc3cc3oc(=O)ccc23)cc1.[I-]", "note": "[PCARBTP, (3-(((4-(4-((7-oxo-7H-furo[3,2-g]chromen-4-yl)oxy)butoxy)phenoxy)carbonyl)amino)propyl)triphenylphosphonium iodide]", "values": [{"measurement": "effect on tumor growth", "setting": "[1]", "value": "did not affect tumor growth"}, {"measurement": "killing of cultured glioma and glioblastoma cell lines", "setting": "[2]", "value": "efficiently killed"}]}
{"compound": "CC[C@H](C)[C@H](NC(=O)Oc1ccc(CCCOc2ccc([P+](CCCc3ccc(OCCCCOc4c5ccoc5cc5oc(=O)ccc45)cc3)(c3ccccc3)c3ccccc3)cc2)cc1)C(=O)NCC(=O)N[C@@H](CCCNC(=N)N)C(=O)N[C@@H](CCCCN)C(=O)N[C@@H](CCCCN)C(=O)N[C@@H](CCCNC(=N)N)C(=O)N[C@@H](CCCNC(=N)N)C(=O)N[C@@H](CCC(N)=O)C(=O)N[C@@H](CCCNC(=N)N)C(=O)N[C@@H](CCCNC(=N)N)C(=O)N[C@@H](CCCNC(=N)N)C(=O)N1CCC[C@H]1C(=O)N1CCC[C@H]1C(=O)N[C@@H](CCC(N)=O)C(=O)NCC(=O)O", "note": "[TAT-PAPTP]", "values": [{"measurement": "solubility in 0.9% NaCl saline", "setting": "[7]; 0.9% NaCl saline, sonicated 5 min, centrifuged 12,000 × g 18 °C 1 and 2 h, detection limit 0.1 µM", "value": "> 100", "unit": "µM"}, {"measurement": "solubility in water", "setting": "[7]; water, sonicated, centrifuged 12,000 × g 18 °C", "value": "> 100", "unit": "µM"}, {"measurement": "construct level in brain", "setting": "[3]; TAT-PAPTP 5 µmoles/kg bw i.v. tail vein in mouse plasma, 2 C57BL mice sacrificed within 15 min, PAPTPL extracted after hydrolysis at pH 12.5, HPLC", "value": "0.2–0.3 nmoles/g fresh tissue"}, {"measurement": "hydrolyzed in mouse blood over 4 h (PAPTPL released)", "setting": "[8]", "value": "more stable"}, {"measurement": "observed toxicity in mice", "setting": "[5]", "value": "evident signs of illness (respiratory difficulties, trailing limbs, swelling of the paws)"}, {"measurement": "observed toxicity in mice", "setting": "[5]; listed as TAT-PAPT", "value": "more toxic than its individual components (TAT and PAPTP) as well as than An2-PAPTP"}, {"measurement": "haemolysis (release of haemoglobin)", "setting": "[9]", "value": "did"}]}
{"compound": "HN-ITFFYGGSRGKRNNFKTEEY-OH", "values": [{"measurement": "fragment found", "setting": "[10]", "value": "PAPTPL-ITF, 15 min; also recorded: PAPTPL-I, 15 min; also recorded: PAPTPL-IT, 15 min"}, {"measurement": "cleaved bond", "setting": "[11]", "value": "hydrolysis of the carbamate bond connecting the peptide and PAPTPL, 10 min"}, {"measurement": "fragment found", "setting": "[12]", "value": "PAPTPL-I, 15 min; also recorded: PAPTPL-IT, 15 min; also recorded: PAPTPL-ITF, 15 min"}, {"measurement": "fragment found", "setting": "[13]", "value": "PAPTPL, 15 min; also recorded: PAPTPL-IT, 30 min; also recorded: PAPTPL-ITF, 30 min"}, {"measurement": "fragment found", "setting": "[14]", "value": "PAPTPL-I, 15 min; also recorded: PAPTPL-IT, 15 min; also recorded: PAPTPL-ITF, 15 min"}]}
{"compound": "gramicidin", "values": [{"measurement": "appearance of ion currents in planar bilayers (control)", "setting": "[15]", "value": "expected development of “fast” ion currents"}]}
